Source: PMC10051485 (Pharmaceuticals, 2023)
“Also recorded” adds a separate entry of the source.

Experiments:
Aβ1–42 = target: T1, Aβ1–42 (Homo sapiens, UniProt P05067); experiment: Anti-Aβ aggregation activity (Thioflavin T fluorescence assay); assay type: biochemical; conditions: for IC50: ThT assay, Aβ1–42, 24 h, room temperature, pH 7.4, read-out: IC50 (µM) ± RSD, antiaggregation action on Aβ42
T1 construct: Amyloid beta (Aβ1–42) was purchased from the American Peptide Company; purchased American Peptide Company (Sunnyvale, CA, USA)
T1 sequence (P05067 672-713): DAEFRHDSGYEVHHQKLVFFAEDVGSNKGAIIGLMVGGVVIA
Description: Each compound was diluted in 50 mM Tris-HCl (pH 7.4) to achieve a concentration between 10 nM and 100 µM using 5 concentration points. A total of 1 µL of each sample solution was added to 96-well plates. […] The plate was incubated in the dark at room temperature for 24 h with no agitation. After an incubation period, 200 µL of 5 µM ThT in 50 mM Tris-HCl (pH 7.4) was added to each well. Fluorescence was measured on a SpectraMax GEMINI EM (Molecular Devices, Sunnyvale, CA, USA) dual scanning microplate spectrofluorometer with excitation and emission wavelengths at 446 nm and 500 nm, respectively. The percent of antiaggregation was calculated as follows: [1 − (Fsample − Fblank)/Fcontrol] × 100.

[1] = tested on: SK-N-SH neuroblastoma cells; experiment: Cytotoxicity on SK-N-SH neuroblastoma cells (MTT assay); conditions: MTT, 24 h; for % Viability ± RSD at the highest nontoxic concentration: at the concentration of Table 2; for Highest concentration that showed nontoxicity on SK-N-SH cells: tested 0–1000 µM
Description: (§1) SK-N-SH cells were pretreated for 3 h with the respective half-maximal inhibitory doses of the tested compounds (except 9 and 10) before incubating with 25 μM Aβ42 for 24 h to determine the neuroprotective effect against Aβ42-induced toxicity. The relative cell viability (compared with the control) was then assessed.
(§2) Quantitative measurement of cell viability was performed by MTT assay. Briefly, SK-N-SH cells were seeded at a density of 5 × 10^4 cells/100 µL into each well of 96-well plate and incubated at 37 °C in 5% CO2 for 24 h. After incubation, the tested compounds were added at different concentrations, from 0 to 1000 µM. After incubation for 24 h, 50 µL of 3-(4,5-dimethylthiazol-2-yl)-2,5-diphenyltetrazolium bromide (MTT) stock solution (1 mg/mL) was added to each well and incubated at 37 °C for 3 h. Absorbance (A) of each well was measured using a plate reader at a wavelength of 590 nm. Three independent experiments were performed, and results were expressed as mean ± SD. […] Each concentration was prepared in triplicate. […] After incubation for 24 h, 50 µL of MTT stock solution (1 mg/mL) was added to each well and incubated at 37 °C for 3 h. The absorbance (A) of each well was measured using a plate reader at a wavelength of 590 nm. Three independent experiments were performed, and results were expressed as mean ± SD.
(§3) The percent of cell viability was calculated as follow: (A590nm of treated cells/A590nm of untreated cells) × 100.

[2] = tested on: SK-N-SH neuroblastoma cells; experiment: Protection of SK-N-SH neuroblastoma against Aβ42-induced cell death (MTT assay); conditions: for % Viability ± RSD, neuroprotective effect against Aβ induced damage: pretreated 3 h at IC50 of antiaggregation (compounds 9 and 10 at 31.25 µM), then 25 µM Aβ42 for 24 h; for viability at 31.25 µM: Homo sapiens, SK-N-SH, read-out: % Viability ± RSD, neuroprotective effect against Aβ induced damage
Description: The effects of Aβ42 on the viability of SK-N-SH neuroblastoma cells were investigated using an MTT reduction test. MTT is a tetrazolium salt that can be reduced to formazan by mitochondria dehydrogenase; the reaction is active only in living cells.
The relative cell viability (compared with the control) was then assessed.
as §2, §3

[3] = Antioxidant activity (DPPH assay); conditions: for IC50: DPPH 0.4 mM, 30 min in darkness, read-out: IC50 (µM) ± RSD, antioxidative activity
Description: Increased generation of free radicals also results in cytotoxicity from Aβ42. This effect might be associated with the Aβ1–42 mediated neurotoxicity. Therefore, it was intriguing to research the roles of the synthesized compounds in assisting oxidative stress, thus preventing cell death. By employing vitamin C as a positive control, the antioxidative properties of synthesized compounds were assessed using the DPPH assay. The activities were presented as the IC50 in Table 4.
Antioxidant activity of tested compounds was determined by the reaction of stable DPPH radical with some modification. Briefly, various concentrations of test compounds were added in 96-well plates and then the methanolic DPPH solution (0.4 mM, 0.1 mL) into each well. The reaction mixture was placed for 30 min in darkness. The degree of purple DPPH decolorization to yellow DPPH indicated the scavenging capacity of the test compounds. The absorbance of the mixture was determined at 517 nm using a microplate reader and L-ascorbic acid served as a positive control. The percent of antioxidant activity was calculated as follow: [1 − (Asample − Ablank)/Acontrol] × 100.

[4] = target: T2, Acetylcholinesterase (AChE) (Electrophorus electricus, UniProt O42275); experiment: Antiacetylcholinesterase activity (Ellman assay); assay type: biochemical, Electrophorus electricus (electric eel); conditions: for % Inhibition ± RSD of acetylcholinesterase: at 100 µM; for inhibition at 100 µM: read-out: % Inhibition ± RSD of acetylcholinesterase
T2 construct: purchased Sigma type VI-S
T2 sequence (O42275 24-633): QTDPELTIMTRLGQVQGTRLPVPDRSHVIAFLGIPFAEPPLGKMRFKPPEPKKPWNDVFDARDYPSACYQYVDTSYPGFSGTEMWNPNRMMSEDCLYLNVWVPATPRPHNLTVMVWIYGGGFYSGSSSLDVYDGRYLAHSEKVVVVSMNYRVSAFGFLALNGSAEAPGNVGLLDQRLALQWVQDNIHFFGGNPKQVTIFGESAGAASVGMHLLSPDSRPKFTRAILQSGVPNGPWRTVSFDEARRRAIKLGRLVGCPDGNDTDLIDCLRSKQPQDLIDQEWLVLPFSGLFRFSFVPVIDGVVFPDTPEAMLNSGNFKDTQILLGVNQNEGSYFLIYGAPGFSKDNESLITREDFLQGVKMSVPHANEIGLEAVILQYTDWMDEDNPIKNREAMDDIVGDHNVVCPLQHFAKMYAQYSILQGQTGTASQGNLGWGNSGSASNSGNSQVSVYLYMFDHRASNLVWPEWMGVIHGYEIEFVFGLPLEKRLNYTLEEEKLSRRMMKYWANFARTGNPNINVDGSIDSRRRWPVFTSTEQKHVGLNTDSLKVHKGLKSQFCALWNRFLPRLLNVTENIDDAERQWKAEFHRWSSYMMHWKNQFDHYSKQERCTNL
Description: All the chemicals were purchased from commercial suppliers and were used without any purification. Acetylcholinesterase from Electrophorus electricus (electric eel) type VI-S was produced from Sigma. […] SK-N-SH human neuroblastoma cell line was obtained from the American Type Culture Collection (ATCC HTB-11). The melting point of all compounds was determined on an Electrothermal model 9100 capillary melting point apparatus. Infrared (IR) spectra were run on Fourier Transform Infrared Spectroscopy (FT-IR) (Nicolet 6700, Thermo Scientific, Waltham, MA, USA) using the direct compression technique and record in cm^−1. Proton and carbon nuclear magnetic resonance (^1H NMR, ^13C NMR) spectra were obtained on an Advance 300 MHz NMR Spectroscopy (DPX-3000, Bruker, Switzerland) at 300 MHz and 75.45 MHz, respectively. Chemical shifts (δ) were reported in parts per million (ppm). The NMR solvents used were deuterated dimethylsulfoxide (DMSO-d6, δ = 2.49 ppm) and deuterated chloroform (CDCl3, δ = 7.25 ppm). Mass spectra were determined on a LCQ Fleet Ion Trap Mass Spectrometry using the ESI method. Silica gel 60 (Merck, Art 7734) was used for column chromatography as an adsorbent. The ratio of sample and the adsorbent was about 1:40–60 by weight. The mobile phases developed for thin-layer chromatography (TLC) were generally applied for a column. TLC investigations routinely used for chromatographic separations were carried out on silica gel F254 coated aluminum sheets 20 × 20 cm (Merck, 0.2 mm thickness). The components were detected by visualization under ultraviolet (UV) light at λ of 254 and 365 nm. All solvents were reagent grade and, when necessary, were purified and dried by standard methods. Starting materials and reagents were obtained from commercial suppliers.
Acetylcholinesterase (AChE) inhibitory activity was assayed by modified Ellman’s method using 96-well microplates. […] The absorbance of the mixture in each well was measured at 405 nm by using a microplate reader. After adding 25 µL of 0.22 U/mL AChE in Buffer II into each well, the measurement of absorbance was carried out again at 405 nm and repeated every 45 s for 10 min cycles by a microplate reader (Infinite M200, Tecan, Switzerland). […] The assay was performed in triplicate. […] The percent of enzyme inhibition was calculated as follows: {[(A-B) − (C − D)]/(A − B)} × 100, where A and C were the absorbances of the control treatment and test compounds; and B and D were blank of control and test compounds.

in vitro = conditions: human
Description: as §1, §2, §3

SK-N-SH cells = experiment: Morphological cell changes (phase contrast inverted microscope); assay type: cell-based, human; conditions: 25 µM Aβ42, 24 h
Description: The effect of Aβ42 in inducing cell death was confirmed using a phase-contrast inverted microscope.
To determine the effect of designed compounds on cell morphology, the observation of cells on phase contrast inverted microscope was performed. […] After incubation, the medium was removed and replaced with various concentrations of the designed compound and incubated for 24 h. After cells were treated with compounds or Aβ1–42, media were removed and treated cells were washed once with phosphate buffer saline (PBS). Then, cells were observed under phase contrast inverted microscope at 400 magnifications.

Cc1[nH]c2ccc(Oc3ccccc3)cc2c1CC(=O)NCc1ccc(F)cc1 [Compound 10, 2-Methyl-3-(4-fluorobenzylethanamide-2-yl)-5-phenoxy Indole]
IC50 (Aβ1–42): 72.7 µM | Fold reduction of anti-Aβ aggregation versus compound 9 (Aβ1–42; p-CH3 (compound 9) replaced with p-F (compound 10)): 1.4 fold | % Viability ± RSD at the highest nontoxic concentration [1]: 80.51 ± 3.96% | Highest concentration that showed nontoxicity on SK-N-SH cells [1]: 31.25 µM | % Viability ± RSD, neuroprotective effect against Aβ induced damage [2]: 63.05 ± 2.70% | IC50 [3]: 86 µM | Fold increase of antioxidant potency versus compound 9 ([3]; p-CH3 (compound 9) converted to p-F (compound 10)): 3.08 fold | % Inhibition ± RSD of acetylcholinesterase [4]: 12.45 ± 4.98%

CCOC(=O)Cc1c(C)[nH]c2ccc(Oc3ccccc3)cc12 [Compound 6, 2-Methyl-3-(ethyl ethanoate-2-yl)-5-phenoxy Indole]
IC50 (Aβ1–42): 19.1 µM | viability at 24 h (in vitro): 89.5 ± 2.11% | Highest concentration that showed nontoxicity on SK-N-SH cells [1]: 31.25. µM | IC50 [3]: 190 µM | inhibition at 100 µM [4]: 19.9%

Cc1[nH]c2ccc(Oc3ccccc3)cc2c1CC(=O)NC#N [Compound 8, 2-Methyl-3-(cyanoethanamide-2-yl)-5-phenoxy Indole]
IC50 (Aβ1–42): 20.6 µM | viability at 24 h (in vitro): 93.8 ± 3.66% | Highest concentration that showed nontoxicity on SK-N-SH cells [1]: 62.50 µM | IC50 [3]: 85.5 µM | Fold less potent antioxidant than compound 5 ([3]; compared to compound 5): 3.03 fold | inhibition at 100 µM [4]: 6.61%

Cc1ccc(CNC(=O)Cc2c(C)[nH]c3ccc(Oc4ccccc4)cc23)cc1 [Compound 9, 2-Methyl-3-(4-methylbenzylethanamide-2-yl)-5-phenoxy Indole]
IC50 (Aβ1–42): 53.7 µM | % Viability ± RSD at the highest nontoxic concentration [1]: 95.21 ± 3.00% | Highest concentration that showed nontoxicity on SK-N-SH cells [1]: 31.25 µM | % Viability ± RSD, neuroprotective effect against Aβ induced damage [2]: 80.38 ± 3.54% | IC50 [3]: 265 µM | % Inhibition ± RSD of acetylcholinesterase [4]: 12.5 ± 4.57%

COc1cc(/C=C/C(=O)CC(=O)/C=C/c2ccc(O)c(OC)c2)ccc1O [Curcumin, reference compound]
viability at 24 h (in vitro): 94.4 ± 1.83% | Highest concentration that showed nontoxicity on SK-N-SH cells [1]: 15.63 µM

Cc1[nH]c2ccc(Oc3ccccc3)cc2c1CC(=O)O [Compound 3, 2-Methyl-3-(carboxymethyl)-5-phenoxy Indole]
IC50 (Aβ1–42): 18.8 µM | viability at 24 h (in vitro): 90.4 ± 3.69% | Highest concentration that showed nontoxicity on SK-N-SH cells [1]: 31.25 µM | IC50 [3]: 47.1 µM | inhibition at 100 µM [4]: 29.3%

O=C1O[C@H]([C@@H](O)CO)C(O)=C1O [Vitamin C, L-ascorbic acid, reference compound]
IC50 [3]: 13.3 µM

CNC(=O)Cc1c(C)[nH]c2ccc(Oc3ccccc3)cc12 [Compound 4, 2-Methyl-3-(methylethanamide-2-yl)-5-phenoxy Indole]
IC50 (Aβ1–42): 3.26 µM | Fold more potent against Aβ aggregation than methyl ester 7 (Aβ1–42; compared to compound 7): 4.3 fold | viability at 24 h (in vitro): 93.7 ± 3.23% | Highest concentration that showed nontoxicity on SK-N-SH cells [1]: 31.25 µM | viability at 31.25 µM [2]: 72.3 ± 1.85% | IC50 [3]: 176 µM | inhibition at 100 µM [4]: 9.73%

Cc1[nH]c2ccc(Oc3ccccc3)cc2c1CC(=O)NS(C)(=O)=O [Compound 5, 2-Methyl-3-(methylsulfonylethanamide-2-yl)-5-phenoxy Indole]
IC50 (Aβ1–42): 3.18 µM | viability at 24 h (in vitro): 93 ± 1.02% | Highest concentration that showed nontoxicity on SK-N-SH cells [1]: 62.50 µM | IC50 [3]: 28.2 µM | inhibition at 100 µM [4]: -5.66% | Morphology of SK-N-SH cells treated with Aβ42 and compound (SK-N-SH cells): healthy cell bodies with neurites; also recorded: healthy cell bodies and neuritis

Cc1ccc(S(=O)(=O)NC(=O)Cc2c(C)[nH]c3ccc(Oc4ccccc4)cc23)cc1 [Compound 12, 2-Methyl-3-(4-methylbenzesulfonylethanamide-2-yl)-5-phenoxy Indole]
IC50 (Aβ1–42): 9.48 µM | % Viability ± RSD at the highest nontoxic concentration [1]: 90.73 ± 4.64% | Highest concentration that showed nontoxicity on SK-N-SH cells [1]: 15.63 µM | % Viability ± RSD, neuroprotective effect against Aβ induced damage [2]: 71.85 ± 1.82% | IC50 [3]: 121 µM | % Inhibition ± RSD of acetylcholinesterase [4]: 31.52 ± 4.90%

Cc1[nH]c2ccc(Oc3ccccc3)cc2c1CC(=O)Nc1ccccc1 [Compound 11, 2-Methyl-3-(phenylethanamide-2-yl)-5-phenoxy Indole]
IC50 (Aβ1–42): 13.1 µM | viability at 24 h (in vitro): 94.3 ± 3.31% | Highest concentration that showed nontoxicity on SK-N-SH cells [1]: 15.63 µM | IC50 [3]: 111 µM | inhibition at 100 µM [4]: 30%

COC(=O)Cc1c(C)[nH]c2ccc(Oc3ccccc3)cc12 [Compound 7, 2-Methyl-3-(methyl ethanoate-2-yl)-5-phenoxy Indole]
IC50 (Aβ1–42): 14 µM | viability at 24 h (in vitro): 93.4 ± 2.15% | Highest concentration that showed nontoxicity on SK-N-SH cells [1]: 31.25 µM | viability at 31.25 µM [2]: 83.7 ± 2.21% | IC50 [3]: 145 µM | inhibition at 100 µM [4]: 11%

C[S+](C)[O-] [DMSO]
% Viability ± RSD at the highest nontoxic concentration [1]: 92.08 ± 2.86%
